From the NIST ThermoML archive (doi:10.1016/j.jct.2016.09.005)

Conditions: Fluid (supercritical or subcritical phases), Brillouin Light Scattering

CC(C)OC(C)C [diisopropyl ether]
Conditions	speed of sound [m/s]
541.51 K, 6500 kPa	190.79
544.16 K, 3500 kPa	139.1
545.71 K, 4500 kPa	129.23
546.93 K, 5500 kPa	147.8
547.24 K, 6500 kPa	183.8
551 K, 3500 kPa	147.92
554.09 K, 4500 kPa	137.04
554.6 K, 5500 kPa	142.16
555.23 K, 6500 kPa	172.31
556.02 K, 3500 kPa	156.04
562.71 K, 3500 kPa	162.02
564.46 K, 4500 kPa	151.45
564.68 K, 5500 kPa	144.2
564.77 K, 6500 kPa	162.69
568.12 K, 3500 kPa	172.59
570.23 K, 4500 kPa	159.8
570.32 K, 6500 kPa	155.46
571.21 K, 5500 kPa	149.54
572.24 K, 3500 kPa	178.24
574.75 K, 6500 kPa	156.08
575.87 K, 4500 kPa	166.92
576.95 K, 5500 kPa	157.61
578.05 K, 3500 kPa	184.2
580.81 K, 6500 kPa	160.95
582.97 K, 4500 kPa	176.94
583.61 K, 3500 kPa	191.39
583.79 K, 5500 kPa	168.45
586.87 K, 6500 kPa	165.44
587.28 K, 5500 kPa	174.08
588.06 K, 4500 kPa	184.23
588.82 K, 3500 kPa	197.63
591.77 K, 3500 kPa	201.8
592.03 K, 6500 kPa	173.69
592.07 K, 4500 kPa	191.01
592.51 K, 5500 kPa	179.58
595.88 K, 6500 kPa	181.47
597.6 K, 4500 kPa	197.93
597.6 K, 5500 kPa	185.96
597.62 K, 3500 kPa	207.01
602.12 K, 3500 kPa	213.74
602.56 K, 4500 kPa	203.87
603.22 K, 6500 kPa	189.62
603.37 K, 5500 kPa	196.7
607.19 K, 4500 kPa	209.92
607.26 K, 5500 kPa	201.24
608.3 K, 3500 kPa	220.34
608.98 K, 6500 kPa	198.69
612.23 K, 3500 kPa	223.95
612.23 K, 4500 kPa	214.66
612.33 K, 5500 kPa	208.84
612.73 K, 6500 kPa	201.04
617.47 K, 4500 kPa	220.52
618 K, 3500 kPa	231.2
618.05 K, 5500 kPa	215.78
618.31 K, 6500 kPa	208.27
622.27 K, 3500 kPa	235.81
623.05 K, 5500 kPa	219.38
623.51 K, 4500 kPa	226.31
623.75 K, 6500 kPa	213.55
626.85 K, 5500 kPa	224.98
627.63 K, 6500 kPa	217.44
627.65 K, 3500 kPa	240.7
628.55 K, 4500 kPa	231.82
632.23 K, 4500 kPa	235.83
632.72 K, 5500 kPa	227.82
632.86 K, 3500 kPa	243.95
633.54 K, 6500 kPa	221.63
637.16 K, 6500 kPa	225.18
638.22 K, 3500 kPa	249.88
638.59 K, 4500 kPa	240.88
638.75 K, 5500 kPa	232.85
642.34 K, 6500 kPa	228.66
643.55 K, 4500 kPa	245.98
643.72 K, 3500 kPa	254.88
644.35 K, 5500 kPa	237.43
648.15 K, 5500 kPa	239.71
648.16 K, 6500 kPa	231.72
648.36 K, 3500 kPa	257.88
648.6 K, 4500 kPa	250.01
652.25 K, 4500 kPa	253.58
652.83 K, 5500 kPa	244.43
653.38 K, 3500 kPa	263.46
653.97 K, 6500 kPa	236.88
657.92 K, 5500 kPa	246.91
658.37 K, 4500 kPa	256.34
658.49 K, 6500 kPa	239.95
658.61 K, 3500 kPa	265.77
662.18 K, 5500 kPa	249.76
662.28 K, 4500 kPa	259.34
663.04 K, 6500 kPa	242.15
664.11 K, 3500 kPa	269.84
667.5 K, 5500 kPa	252.59
667.83 K, 4500 kPa	264.18
667.84 K, 6500 kPa	245.05
668.59 K, 3500 kPa	271.89
670.57 K, 5500 kPa	254.53
671.41 K, 6500 kPa	247.45
672.38 K, 4500 kPa	265.43
672.56 K, 3500 kPa	274.52
